How the values were obtained:
[1] = target: GDP-bound HRAS wild-type protein (Homo sapiens, UniProt P01112); assay: Binding to HRAS by surface plasmon resonance (SPR), Single Cycle Kinetics; settings: KD ratio HRAS/KRAS, class symbols
[2] = target: GDP-bound NRAS wild-type protein (Homo sapiens, UniProt P01111); assay: Binding to NRAS by surface plasmon resonance (SPR), Single Cycle Kinetics; settings: KD ratio NRAS/KRAS, class symbols
GDP-bound NRAS wild-type protein, sequence (P01111 whole entry): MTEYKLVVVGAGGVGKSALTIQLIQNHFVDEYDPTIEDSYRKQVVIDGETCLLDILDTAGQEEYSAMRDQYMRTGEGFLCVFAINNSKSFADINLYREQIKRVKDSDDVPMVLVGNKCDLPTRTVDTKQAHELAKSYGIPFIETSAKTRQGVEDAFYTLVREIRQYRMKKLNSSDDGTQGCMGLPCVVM

GDP-bound HRAS wild-type protein, sequence (P01112 whole entry): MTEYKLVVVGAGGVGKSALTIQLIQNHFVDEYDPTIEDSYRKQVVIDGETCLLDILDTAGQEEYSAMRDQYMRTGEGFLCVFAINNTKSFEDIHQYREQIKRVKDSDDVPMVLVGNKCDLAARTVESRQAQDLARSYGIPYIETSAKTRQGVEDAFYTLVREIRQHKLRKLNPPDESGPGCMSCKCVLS

| Compound | HRAS/KRAS (ratio of KD value with respect to GDP-bound HRAS wild-type protein to KD value with respect to KRAS) [1] | NRAS/KRAS (ratio of KD value with respect to GDP-bound NRAS wild-type protein to KD value with respect to KRAS) [2] |
| --- | --- | --- |
| CCO[C@@H]1C[C@H]2C(=O)NC3(CC(C)(C)C3)C(=O)N(C)[C@@H](C3CCCC3)C(=O)N(C)[C@H](C(=O)N(C)CC)CC(=O)N(C)[C@@H](CC(C)C)C(=O)N[C@@H]([C@@H](C)CC)C(=O)N(C)CC(=O)N(C)[C@H]3C/C=C\CCN(C3=O)[C@@H](Cc3ccc(C(F)F)cc3)C(=O)N(C)CC(=O)N[C@@H](CCc3ccc(Cl)c(Cl)c3)C(=O)N2C1 [PP2827] | B (a compound having 3 or more and less than 10 is denoted as B) | A (a compound having 10 or more and less than 20 is denoted as A) |
| CCO[C@@H]1C[C@H]2C(=O)NC3(CC(C)(C)C3)C(=O)N(C)[C@@H](C3CCCC3)C(=O)N(C)[C@H](C(=O)N(C)CC)CC(=O)N(C)[C@@H](CC(C)C)C(=O)N[C@@H]([C@@H](C)CC)C(=O)N(C)CC(=O)N(C)[C@H]3C/C=C\CCN(C3=O)[C@@H](Cc3ccc(C(F)F)cc3)C(=O)N(C)CC(=O)N[C@@H](CCc3ccc(C(F)(F)F)c(OC)c3)C(=O)N2C1 [PP2828] | A (a compound having 10 or more and less than 20 is denoted as A) | A (a compound having 10 or more and less than 20 is denoted as A) |
| CCO[C@@H]1C[C@H]2C(=O)NC3(CC(C)(C)C3)C(=O)N(C)[C@@H](C3CCCC3)C(=O)N(C)[C@H](C(=O)N(C)CC)CC(=O)N(C)[C@@H](CC(C)C)C(=O)N[C@@H]([C@@H](C)CC)C(=O)N(C)CC(=O)N(C)[C@H]3C/C=C\CCN(C3=O)[C@@H](Cc3ccc(C(F)F)cc3)C(=O)N(C)CC(=O)N[C@@H](CCc3ccc(C(F)(F)F)c(Cl)c3)C(=O)N2C1 [PP2829] | A (a compound having 10 or more and less than 20 is denoted as A) | A (a compound having 10 or more and less than 20 is denoted as A) |
| CCCOC[C@H]1C(=O)N[C@@H]([C@@H](C)CC)C(=O)N(C)CC(=O)N(C)[C@H]2C/C=C\CCN(C2=O)[C@@H](Cc2ccc(C(F)(F)F)cc2)C(=O)N(C)CC(=O)N[C@@H](CCc2ccc(Cl)c(Cl)c2)C(=O)N2C[C@H](OCC)C[C@H]2C(=O)NC2(CCC2)C(=O)N(C)[C@@H](C2CCCC2)C(=O)N(C)[C@H](C(=O)N(C)CCC)CC(=O)N1C [PP2830] | A (a compound having 10 or more and less than 20 is denoted as A) | A (a compound having 10 or more and less than 20 is denoted as A) |
| CCCOC[C@H]1C(=O)N[C@@H]([C@@H](C)CC)C(=O)N(C)CC(=O)N(C)[C@H]2C/C=C\CCN(C2=O)[C@@H](Cc2ccc(C(F)(F)F)cc2)C(=O)N(C)CC(=O)N[C@@H](CCc2ccc(C(F)(F)F)c(Cl)c2)C(=O)N2C[C@H](OCC)C[C@H]2C(=O)NC2(CCC2)C(=O)N(C)[C@@H](C2CCCC2)C(=O)N(C)[C@H](C(=O)N(C)CCC)CC(=O)N1C [PP2831] | A (a compound having 10 or more and less than 20 is denoted as A) | A (a compound having 10 or more and less than 20 is denoted as A) |
| CCO[C@@H]1C[C@H]2C(=O)NC3(CC(C)(C)C3)C(=O)N(C)[C@@H](C3CCCC3)C(=O)N(C)[C@H](C(=O)N(C)C)CC(=O)N(C)[C@@H](CC(F)(F)F)C(=O)N[C@@H]([C@@H](C)CC)C(=O)N(C)CC(=O)N(C)[C@H]3C/C=C\CCN(C3=O)[C@@H](Cc3ccc(C(F)(F)F)cc3)C(=O)N(C)CC(=O)N[C@@H](CCc3ccc(Cl)c(Cl)c3)C(=O)N2C1 [PP2832] | A (a compound having 10 or more and less than 20 is denoted as A) | A (a compound having 10 or more and less than 20 is denoted as A) |
| CCO[C@@H]1C[C@H]2C(=O)NC3(CC(C)(C)C3)C(=O)N(C)[C@@H](C3CCCC3)C(=O)N(C)[C@H](C(=O)N(C)C)CC(=O)N(C)[C@@H](CC(F)(F)F)C(=O)N[C@@H]([C@@H](C)CC)C(=O)N(C)CC(=O)N(C)[C@H]3C/C=C\CCN(C3=O)[C@@H](Cc3ccc(C(F)(F)F)cc3)C(=O)N(C)CC(=O)N[C@@H](CCc3ccc(C(F)(F)F)c(Cl)c3)C(=O)N2C1 [PP2833] | A (a compound having 10 or more and less than 20 is denoted as A) | A (a compound having 10 or more and less than 20 is denoted as A) |
| CCO[C@@H]1C[C@H]2C(=O)NC3(CC(C)(C)C3)C(=O)N(C)[C@@H](C3CCCC3)C(=O)N(C)[C@H](C(=O)N(C)CC)CC(=O)N(C)[C@@H](COC)C(=O)N[C@@H]([C@@H](C)CC)C(=O)N(C)CC(=O)N(C)[C@H]3C/C=C\CCN(C3=O)[C@@H](Cc3ccc(C(F)(F)F)cc3)C(=O)N(C)CC(=O)N[C@@H](CCc3ccc(Cl)c(Cl)c3)C(=O)N2C1 [PP2835] | A (a compound having 10 or more and less than 20 is denoted as A) | A (a compound having 10 or more and less than 20 is denoted as A) |
| CCO[C@@H]1C[C@H]2C(=O)NC3(CC(C)(C)C3)C(=O)N(C)[C@@H](C3CCCC3)C(=O)N(C)[C@H](C(=O)N(C)CC)CC(=O)N(C)[C@@H](COC)C(=O)N[C@@H]([C@@H](C)CC)C(=O)N(C)CC(=O)N(C)[C@H]3C/C=C\CCN(C3=O)[C@@H](Cc3ccc(C(F)(F)F)cc3)C(=O)N(C)CC(=O)N[C@@H](CCc3ccc(C(F)(F)F)c(Cl)c3)C(=O)N2C1 [PP2836] | A (a compound having 10 or more and less than 20 is denoted as A) | A (a compound having 10 or more and less than 20 is denoted as A) |
| CCO[C@@H]1C[C@H]2C(=O)NC3(CCCC3)C(=O)N(C)[C@@H](C3CCCC3)C(=O)N(C)[C@H](C(=O)N(C)C)CC(=O)N(C)[C@@H](CC(C)C)C(=O)N[C@@H]([C@@H](C)CC)C(=O)N(C)CC(=O)N(C)[C@H]3C/C=C\CCN(C3=O)[C@@H](Cc3ccc(C(F)(F)F)cc3)C(=O)N(C)CC(=O)N[C@@H](CCc3ccc(Cl)c(Cl)c3)C(=O)N2C1 [PP2837] | A (a compound having 10 or more and less than 20 is denoted as A) | AA (a compound having 20 or more is denoted as AA) |
| CCO[C@@H]1C[C@H]2C(=O)NC3(CCCC3)C(=O)N(C)[C@@H](C3CCCC3)C(=O)N(C)[C@H](C(=O)N(C)C)CC(=O)N(C)[C@@H](CC(C)C)C(=O)N[C@@H]([C@@H](C)CC)C(=O)N(C)CC(=O)N(C)[C@H]3C/C=C\CCN(C3=O)[C@@H](Cc3ccc(C(F)(F)F)cc3)C(=O)N(C)CC(=O)N[C@@H](CCc3ccc(C(F)(F)F)c(Cl)c3)C(=O)N2C1 [PP2838] | A (a compound having 10 or more and less than 20 is denoted as A) | AA (a compound having 20 or more is denoted as AA) |
| CCCC[C@H]1C(=O)N[C@@H]([C@@H](C)CC)C(=O)N(C)CC(=O)N(C)[C@H]2C/C=C\CCN(C2=O)[C@@H](Cc2ccc(C(F)(F)F)cc2)C(=O)N(C)CC(=O)N[C@@H](CCc2ccc(C(F)(F)F)c(OC)c2)C(=O)N2C[C@H](OCC)C[C@H]2C(=O)NC2(CCC2)C(=O)N(C)[C@@H](C2CCCC2)C(=O)N(C)[C@H](C(=O)N(C)CC)CC(=O)N1C [PP2840] | A (a compound having 10 or more and less than 20 is denoted as A) | A (a compound having 10 or more and less than 20 is denoted as A) |
| CCCC[C@H]1C(=O)N[C@@H]([C@@H](C)CC)C(=O)N(C)CC(=O)N(C)[C@H]2C/C=C\CCN(C2=O)[C@@H](Cc2ccc(C(F)(F)F)cc2)C(=O)N(C)CC(=O)N[C@@H](CCc2ccc(C(F)(F)F)c(Cl)c2)C(=O)N2C[C@H](OCC)C[C@H]2C(=O)NC2(CCC2)C(=O)N(C)[C@@H](C2CCCC2)C(=O)N(C)[C@H](C(=O)N(C)CC)CC(=O)N1C [PP2841] | A (a compound having 10 or more and less than 20 is denoted as A) | A (a compound having 10 or more and less than 20 is denoted as A) |
| CCO[C@@H]1C[C@H]2C(=O)NC3(CCC3)C(=O)N(C)[C@@H](C3CCCC3)C(=O)N(C)[C@H](C(=O)N(C)C)CC(=O)N(C)[C@@H](CC3CCCC3)C(=O)N[C@@H]([C@@H](C)CC)C(=O)N(C)CC(=O)N(C)[C@H]3C/C=C\CCN(C3=O)[C@@H](Cc3ccc(C(F)(F)F)cc3)C(=O)N(C)CC(=O)N[C@@H](CCc3ccc(C(F)(F)F)c(Cl)c3)C(=O)N2C1 [PP2842] | B (a compound having 3 or more and less than 10 is denoted as B) | A (a compound having 10 or more and less than 20 is denoted as A) |
| C#CC[C@H]1C(=O)N[C@@H]([C@@H](C)CC)C(=O)N(C)CC(=O)N(C)[C@H]2C/C=C\CCN(C2=O)[C@@H](Cc2ccc(C(F)(F)F)cc2)C(=O)N(C)CC(=O)N[C@@H](CCc2ccc(Cl)c(Cl)c2)C(=O)N2C[C@H](OCC)C[C@H]2C(=O)NC2(CC(C)(C)C2)C(=O)N(C)[C@@H](C2CCCC2)C(=O)N(C)[C@H](C(=O)N(C)CC)CC(=O)N1C [PP2843] | A (a compound having 10 or more and less than 20 is denoted as A) | A (a compound having 10 or more and less than 20 is denoted as A) |

— patent US20250230193A1, “CYCLIC COMPOUND HAVING SELECTIVE KRAS INHIBITORY EFFECT ON HRAS AND NRAS” (CHUGAI SEIYAKU KABUSHIKI KAISHA, priority 2022, published 2025)
